The values below come from patent US12410157B2, “Compound useful as toll-like receptor 7 activation inhibitor” (TOYAMA PREFECTURAL UNIVERSITY, priority 2020, dated 2025).

Several values for one entry are separate records, joined by “and”; a condition that tells them apart may be missing. Equal values may be shown once.

Series [1] deals with Cytochrome P450 (CYP), mouse liver microsomes. Description: Metabolic stability (CYP) using mouse liver microsomes, HPLC. Type of series: in vitro ADME. The conditions noted are these: for Area (%) of peak: LC-UV (220 nm). The protocol:
For CB-7, B2-24, and B2-5A, 10 mg/mL DMSO solution was used. Each chemical compound was diluted with acetonitrile to 0.1 mg/mL, which was used as the analytical standard. Mouse liver microsomal fractions were rapidly thawed in a warm bath at 37° C. and kept on ice. Reaction buffer containing CYP cofactor was prepared on ice and mixed with the microsomal fractions. The reaction solution was preincubated at 37° C. for 5 minutes, and then the test substance solution was added and mixed well by pipetting. The volume of the reaction solution was 200 μL and the final concentration of the test substance was 0.1 mg/mL. The reaction solution was incubated at 37° C. for 30 minutes or 2 hours, and the reaction was stopped by adding 3 times the volume of acetonitrile and vortexing. After the reaction was stopped, the samples were centrifuged, and each supernatant was separated and dried in an evaporator. 50 μL of 50% acetonitrile solution was added to each solidified sample, and each sample was re-dissolved by vortexing for 5 minutes. Each redissolved solution was centrifuged, and each supernatant was subjected to HPLC analysis using a HITACHI Lachrom ELITE (HITACHI) as a HPLC system and COSMOSIL 5C18-MS-II, 4.6 mmI.D.×150 mm (nacalai tesque Co.) as a column.
Metabolic stability analysis of CB-7 and B2-24-4-5A·HCOOH was performed by the method of Example 5.
For orientation: Liver microsomes are a subcellular fraction often used to study metabolism.

Series [2] relates to systemic lupus erythematosus model mice (NZBWF1). Put plainly: Therapeutic effect in mouse model of spontaneous systemic lupus erythematosus. The series is classed as in vivo. The protocol:
Systemic lupus erythematosus model mice (NZBWF1, 20 weeks old, female, n=55) were divided into saline-administered group (control, n=25), B2-24-4-5A·HCOOH-administered group (n=10), B2-24-4·HCOOH-administered group (n=5) and HCQ-administered group (n=15). The saline-administered group received saline (100 l) orally once a day, every day; the B2-24-4-5A·HCOOH-administered group received 10 mg/kg of B2-24-4-5A·HCOOH (100 l) orally once a day, every day; the B2-24-4·HCOOH-administered group received 10 mg/kg of B2-24-4·HCOOH (100 l) orally once a day, every day; the HCQ-administered group received 10 mg/kg of HCQ (100 l) orally once a day, every day. Fifteen weeks after the start of treatment, urine was collected from surviving mice in the saline-administered group (control, n=17), B2-24-4-5A·HCOOH-administered group (n=10), B2-24-4·HCOOH-administered group (n=5), and HCQ-administered group (n=12), and the mice were euthanized. After euthanasia, blood was drawn from the abdominal aorta of the mice, and the kidneys and spleen were removed.
Mice that died of natural causes during the 15-week period from the start of treatment were counted as deaths, and survival analysis was performed using the Kaplan Meier method. Blood collected from the abdominal aorta of each mouse, excluding the deceased cases, was centrifuged and serum was prepared. Determination of urea nitrogen and creatinine levels in serum was entrusted to Oriental Yeast Co. Albumin levels in urine were determined by ELISA (used kit: Levis Urinary Albumin-Mouse (S-type) (trade name) (Fujifilm Wako Shibayagi Corporation)). The removed kidneys were fixed with 4% (w/v) paraformaldehyde, and immunohistochemical staining was entrusted to Morpho Technology, Inc. In PAS-stained kidney tissue sections, histological findings of 100 glomeruli were evaluated. For increased cells and substrate in the mesangial area, endothelial cell swelling and cellular infiltration of the capillary lumen (intratubular proliferation), and glomeruli with inflammatory crescents (extratubular proliferation), each of the 100 glomeruli was assigned a grade from grade 0 to grade 2 according to severity and scored on a 6-point scale.
FIG. 10F is a photograph showing C3 deposition in the glomeruli of a mouse (#1) in the saline-administered group, a mouse (#10) in the B2-24-4-5A·HCOOH-administered group, a mouse (#4) in the B2-24-4·HCOOH-administered group and a mouse (#14) in the HCQ-administered group. […] In the renal tissue sections of a mouse (#1) in the saline-administered group, findings of active glomerulonephritis such as diffuse mesangial and intratubular proliferation were observed. […] The plots in FIGS. 10B, 10C, and 10D show the data for each individual, each bold line is the mean of the group data, and each error bar standard error. Scale bars in FIGS. 10E and 10F represent 100 μm. […]

Regarding `C=C(C)[C@@H]1CC[C@]2(COC(=O)C2)C[C@H]1c1ccc(CN2CCNCC2)cc1` [B2-24-4-5A·HCOOH], the “Number of peaks detected by HPLC” value in series [1] (Example 9) was determined as 6. For the same molecule, the “Area (%) of peak” value in series [1] (Example 9, 0 h) is 100%; in series [1] (Example 9, incubation 0.5 h), 95.4%; in series [1] (Example 9, incubation 2.0 h), 88.4%. Moreover, in series [1] (words), the “Drug metabolism mainly by CYPs compared to CB-7” value was “significantly improved drug metabolism”. In series [2] (10 mg/kg orally once a day, groups started with n=10, n=5, n=15 (HCQ)), the “Surviving mice fifteen weeks after the start of treatment” value is on record as 10. In addition, in series [2] (per mouse, histological score on a 6-point scale), the score was 0.23 and 0.15 and 0.42 and 0.09 (2×) and 0.24 and 0.03 and 0.04 and 0.14 and 0.52. The “Inside 0” value in series [2] (per mouse, of 100 glomeruli, endothelial cell swelling and cellular infiltration of capillary lumen, Grade 0) is 99 (2×) and 100 (3×) and 78 and 96 and 94 and 97 and 74. Besides, in series [2] (per mouse, of 100 glomeruli, endothelial cell swelling and cellular infiltration of capillary lumen, Grade 1), the “Inside 1” value is 1 (2×) and 0 (3×) and 18 and 4 and 6 and 3 and 20. The “Inside 2” value in series [2] (per mouse, of 100 glomeruli, endothelial cell swelling and cellular infiltration of capillary lumen, Grade 2) was 0 (8×) and 4 and 6. Further, the “Outside 0” value in series [2] (per mouse, of 100 glomeruli, glomerulus with semilunar, Grade 0) was 99 and 100 (9×). Besides, in series [2] (per mouse, of 100 glomeruli, glomerulus with semilunar, Grade 1), the “Outside 1” value is 1 and 0 (9×). In addition, the “Outside 2” value in series [2] (per mouse, of 100 glomeruli, glomerulus with semilunar, Grade 2) worked out at 0. Besides, in series [2] (per mouse, of 100 glomeruli, increase in cells and substrates in the mesangium region, Grade 0: None, 10 mg/kg orally, 15 weeks, 10 mg/kg), the Mes0 was 80 (3×) and 86 (2×) and 92 (2×) and 97 and 96 and 94. Besides, in series [2] (per mouse, of 100 glomeruli, mesangium region, Grade 1: Moderate or lower), the Mes1 was 19 and 13 and 12 and 8 (2×) and 20 (2×) and 3 and 4 and 6. Besides, the Mes2 in series [2] (per mouse, of 100 glomeruli, mesangium region, Grade 2: Moderate or higher) is 1 (2×) and 2 and 0 (7×).
